ChEMBL document CHEMBL1938378, “Synthesis and evaluation of tetrahedral intermediate mimic inhibitors of 3-deoxy-d-manno-octulosonate 8-phosphate synthase” (Bioorg Med Chem Lett, 2012)

Columns and labels:
[1] = biological target: 2-dehydro-3-deoxyphosphooctonate aldolase (Neisseria meningitidis serogroup B (strain MC58), UniProt Q9JZ55); assay: Competitive inhibition of Neisseria meningitidis serotype B strain MC58 ATCC BAA355 KDO8P synthase expressed in Escherichia coli BL21 (DE3) cells using PEP as substrate after 10 to 15 mins by Michaelis-Menten equation
[2] = Competitive inhibition of Acidithiobacillus ferrooxidans KDO8P synthase using PEP as substrate after 10 to 15 mins by Michaelis-Menten equation
[3] = Inhibition of Escherichia coli KDO8P
[4] = Inhibition of Helicobacter pylori KDO8P

2-dehydro-3-deoxyphosphooctonate aldolase, sequence (Q9JZ55 whole entry): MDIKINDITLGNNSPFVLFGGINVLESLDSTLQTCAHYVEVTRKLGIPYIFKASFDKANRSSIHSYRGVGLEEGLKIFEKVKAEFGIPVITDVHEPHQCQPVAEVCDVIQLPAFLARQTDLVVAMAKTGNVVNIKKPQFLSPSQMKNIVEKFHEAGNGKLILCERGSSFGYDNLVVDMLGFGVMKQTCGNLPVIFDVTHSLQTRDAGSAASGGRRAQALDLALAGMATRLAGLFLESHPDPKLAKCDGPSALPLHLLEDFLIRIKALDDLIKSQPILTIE

Row | Compound | Ki [1] | Ki [2] | Ki [3] | IC50 [4]
1 | O=C(O)C(O)CCCCCCOP(=O)(O)O (centres undefined) | 270 µM | 190 µM |  | 
2 | O=C(O)C(CCCCCCOP(=O)(O)O)OP(=O)(O)O (centres undefined) | 7.9 µM | 20 µM |  | 
3 | C[C@H](OP(=O)(O)O)C(=O)O | 1200 µM | 1000 µM |  | 
4 | C[C@@H](OP(=O)(O)O)C(=O)O | 870 µM | 390 µM |  | 
5 | O=C(O)CNCP(=O)(O)O [GLYPHOSATE] | 260 µM | 330 µM |  | 
6 | O=C(O)CN(C[C@@H](O)[C@@H](O)[C@H](O)[C@H](O)COP(=O)(O)O)CP(=O)(O)O |  |  | 0.37 µM | 132 µM
7 | O=C(O)C(CCCCCCO)OP(=O)(O)O (centres undefined) | 1000 µM | 540 µM |  | 
